Biological target: anthranilate synthase TrpE (Rv1609) (Mycobacterium tuberculosis, UniProt P9WFX3)
Assay: biochemical

Sequence of anthranilate synthase TrpE (Rv1609) (P9WFX3 whole entry): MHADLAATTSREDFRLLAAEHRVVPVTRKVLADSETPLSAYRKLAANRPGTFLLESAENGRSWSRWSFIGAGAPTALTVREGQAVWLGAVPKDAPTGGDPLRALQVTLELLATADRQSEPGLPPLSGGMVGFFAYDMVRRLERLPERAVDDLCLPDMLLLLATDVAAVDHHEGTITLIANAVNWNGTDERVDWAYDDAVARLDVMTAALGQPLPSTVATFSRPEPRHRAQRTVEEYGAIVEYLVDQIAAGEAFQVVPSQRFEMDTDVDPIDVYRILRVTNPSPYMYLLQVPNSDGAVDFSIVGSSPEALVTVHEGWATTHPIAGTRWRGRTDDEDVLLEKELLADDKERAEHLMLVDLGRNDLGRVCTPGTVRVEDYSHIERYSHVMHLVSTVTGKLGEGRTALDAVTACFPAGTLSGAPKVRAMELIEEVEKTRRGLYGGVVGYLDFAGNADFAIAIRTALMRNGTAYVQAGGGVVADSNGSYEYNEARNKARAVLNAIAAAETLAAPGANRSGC

N[C@@H](Cc1c[nH]c2ccc(F)cc12)C(=O)O [F-Trp, 5-fluoro-L-tryptophan]
IC50: 4.1 µM

— paper PMC6437058 (mBio, 2019)
